From patent US8703815B2, “Small molecules that covalently modify transthyretin” (The Scripps Research Institute, priority 2009, dated 2014)

What was measured:
[1] = Photoisomerization upon irradiation (312 nm, 10 seconds); type: physicochemical
Procedure: Although TTR can bind to small molecules composed of two aromatic rings when the tethered rings are up to 40° out of plane {based on TTR-stilbene crystal structures [Klabunde et al., Nat. Struct. Biol. 2000, 7, 312-321; Connelly et al., Curr. Opin. Struc. Biol. 2010, 20, 54-62; Johnson et al., J. Med. Chem. 2008, 51, 6348-6358; Choi et al., J. Am. Chem. Soc. 2010, 132, 1359-1370; Choi et al., Nat. Chem. Biol. 2010, 6, 133-139; Baures et al., Bioorg. Med. Chem. 1998, 6, 1389-1401; and Baures et al., Bioorg. Med. Chem. 1999, 7, 1339-1347]}, it would be energetically unfavorable to bind the excited singlet state in a conformation where the two aryl rings are oriented perpendicular to one another. Thus, we propose that the increase in fluorescence quantum yield of B2 from 0.09 in buffer to 0.55 in complex with TTR results from the resculpted excited singlet state energy surface of the stilbene in complex with TTR, such that the trans-conformer is the only state of relatively low potential energy [Gorner, H.; Kuhn, H. J. Adv, Photochem. 1995, 19, 1-117; Malkin et al., J. Phys. Chem. 1964, 68, 1153-1163; Saltiel, J. J. Am. Chem. Soc. 1967, 89, 1036-1037; Saltiel et al., J. Am. Chem. Soc. 1972, 94, 6445-6457; Saltiel et al., J. Am. Chem. Soc. 1979, 101, 2982-2996; and Saltiel et al., J. Am. Chem. Soc. 1968, 90, 4759-4760] inhibiting photoisomerization-based relaxation of B2. That B2 binding to TTR inhibits B2 photoisomerization is consistent with the observation that the irradiation of B2 in buffer (Life Technologies, TFX-35M, 312 nm) for 10 seconds affords 60% of the cis isomer, along with other minor photoreaction products, whereas irradiation of B2 bound to TTR yields only 20% cis isomer.
It appears that the increase in fluorescence quantum yield of A2 from 0.00 in buffer to 0.27 in the TTR-(stilbene)n≦2 conjugate is only partly explained by the mechanism proposed for B2 [Gorner, H.; Kuhn, H. J. Adv, Photochem. 1995, 19, 1-117; Malkin et al., J. Phys. Chem. 1964, 68, 1153-1163; Saltiel, J. J. Am. Chem. Soc. 1967, 89, 1036-1037; Saltiel et al., J. Am. Chem. Soc. […]

[2] = tested on: Huh-7 human liver (hepatoma) cells; test: Labeling of endogenous TTR in Huh-7 cells; type: cell-based; conditions: A2 10 μM, 30 minutes
From the text: The confocal fluorescence observations are consistent with substantial evidence that the liver secretes the vast majority, if not all, of the TTR into the human bloodstream [Felding et al., Biochimica et Biophysica Acta 1982, 716, 446-9]. That TTR could be visualized in the secretory pathway addresses the sensitivity of A2-derived TTR fluorescent conjugate-based detection [Sekijima et al., Cell 2005, 121, 73-85].
Huh-7 cells or Gaucher's patient-derived fibroblasts (Coriell Cell Repositories, GM08760) were maintained in DMEM containing 10% FBS at 37° C. under 5% CO2. The cells were plated the day before compound treatment and imaging. Cells were washed twice with PBS and then treated with A2 (final concentration: 10 μM) for 30 minutes at 37° C. in a CO2 incubator. After two washes, cells were fixed at 25° C. for 15 minutes with 3.7% paraformaldehyde (w/v) in PBS and microscopic images were acquired as described above.

[3] = target: T1, WT-TTR (Homo sapiens, UniProt P02766); test: Selectivity of A2 TTR conjugation in HeLa cell lysate (RP-HPLC, LC-MS); type: binding; conditions: WT-TTR 5 μM, A2 15 μM, maximum of 50%
T1 construct: composed of 127-residue β-sheet-rich subunits; made in house; host or cells: E. coli
Procedure: The ability of A2 to form a chemoselective amide bond with the K15 residue of TTR in cell lysate was assessed by RP-HPLC and LC-MS analysis. […] Immunoisolation of TTR affords the expected mass resulting from conjugate formation (14,185 m/z [M+H] for benzoylation by A2).

[4] = tested on: WT-TTR in transfected HeLa cells; test: Confocal fluorescence imaging of WT-TTR in transfected HeLa cells; type: cell-based, human; conditions: A2 10 μM, 1 hour
Procedure: Secreted WT-TTR was produced in HeLa cells by transient transfection and the cells were treated with A2 for 1 hour prior to imaging using confocal fluorescence microscopy. The expression of WT-TTR in the HeLa cells after transient transfection was confirmed using western blot analysis, as was the absence of TTR in the empty vector control. […] TTR conjugate fluorescence co-localized with calnexin indirect immunofluorescence, a marker for the endoplasmic reticulum (ER), confirming that WT-TTR within the secretory pathway is being observed. TTR conjugate fluorescence is also expected in the Golgi and in secretory vesicles, explaining why TTR conjugate fluorescence is observed in organelles in addition to the ER.
HeLa cells were plated on cover slips in DMEM containing 10% FBS at 37° C. under 5% CO2 the day before they were transfected with pcDNA3.1(+)-empty vector or pcDNA3.1(+)-WT-TTR using […] (Roche) according to the manufacturer's instructions. After 48 hours, the cells were washed with PBS twice before adding fresh DMEM (without FBS) with A2 (final concentration: 10 μM), and the cells were incubated at 37° C. for 1 hour. After two washes with PBS, the cells were fixed at 25° C. for 15 minutes with 3.7% (w/v) paraformaldehyde in PBS. […]

Cc1cc(/C=C/c2cc(C(=O)Sc3ccc(F)cc3)cc(N(C)C)c2)cc(C)c1O [Compound A2, (E)-S-4-fluorophenyl 3-(dimethylamino)-5-(4-hydroxy-3,5-dimethylstyryl)-benzothioate]
photoisomerization upon irradiation in buffer (in words) [1]: does not readily form the cis isomer
fluorescence in Huh-7 cells [2]: strong fluorescence
% of TTR subunits modified in HeLa cell lysate [3]: 49%
conjugate fluorescence in HeLa cells expressing WT-TTR [4]: strong conjugate fluorescence
